Laboratory results: patent US20240010684A1, “MASP INHIBITORY COMPOUNDS AND USES THEREOF” (BAYER AKTIENGESELLSCHAFT, priority 2020, published 2024)
*1 amine or outer side, *2 acyl side, *3 side chain or, on linkers, in order; H or OH if unused. Where a SMILES comes first, the peptide text is derived from it. Bridges are numbered along the chain shown (N, C = ends). [ ]: non-standard residue; d: D form. X6 = O=C(CCC(=O)[*:1])NCCCOCCOCCOCCCN[*:2]; Oic = O=C(O)[C@@H]1C[C@@H]2CCCC[C@@H]2N1; Trx = NC[C@H]1CC[C@H](C(=O)O)CC1; tBuAla = CC(C)(C)C[C@H](N)C(=O)O; Pen = CC(C)(S)[C@H](N)C(=O)O; NMeC = CN[C@@H](CS)C(=O)O; Orn = NCCC[C@H](N)C(=O)O; Ahx = NCCCCCC(=O)O

Assays:
human MASP2 = human MASP2 (Homo sapiens (Human), UniProt O00187); experiment: Biochemical human MASP2 assay (FRET substrate); settings: Average IC50; recombinant human MASP2; read-out: human MASP2 IC50
Method in brief: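 Mature recombinant human MASP2, expressed in HEK293 and purified by Ni-NTA affinity, was reacted with a DABCYL FRET peptide substrate (added as a 60 μM solution) for 60-120 min at 32 C. Fluorescence increase was read at ex 340/em 490 nm; IC50 was derived from % inhibition versus compound concentration.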

human MASP1 = human MASP1 (Homo sapiens (Human), UniProt P48740); experiment: Biochemical human MASP1 assay (FRET substrate); settings: Average IC50; recombinant human MASP1; read-out: human MASP1 IC50
Method in brief: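 Recombinant human MASP1 (aa 297-699, C-terminal His tag, HEK293-expressed, Ni-NTA purified) diluted to 20 nM in 50 mM HEPES pH 8,0, 100 mM NaCl, 0,01% CHAPS, 0.5 mM glutathione, preincubated with compound in DMSO; reaction started with 20 μM ABZ/Dnp FRET substrate solution. Fluorescence (ex 320/em 420 nm) after 60-120 min at 32 C; IC50 from % inhibition.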

[1] = test system: Human C3-DEPOSITION SERUM; experiment: C3 deposition assay, human serum on mannan-coated plates; type: biochemical; settings: Average IC50, read-out: Human C3-DEPOSITION SERUM IC50
Method: 3. C3 Deposition Assay (Human, Rat, Mouse, Dog, Pig))
The C3 deposition assay was conducted essentially as described (reference). Multiwell plates (Greiner-Nunc 384 Maxi Sorp #464718) were coated over night with Mannan from Saccharomyces cerevisiae (Sigma M7504, 10 μg/mL in 0.05 M carbonate-bicarbonate buffer, pH 9.6) at 4° C. Wells were washed three times with TBS and subsequently incubated for 2 hours with 50 μL of 1% bovine serum albumin (BSA) in Tris-buffered saline (TBS) at 37° C. in order to block non-specific binding. After this step and each of the following incubation steps wells were washed three times with C3 wash buffer (TBS; 0.05% Tween 20; 5 mM CaCl2). […] When appropriately developed the color reaction was stopped by addition of 25 μL of stop solution (Sigma S5814) and quantified on a photometer by measuring absorption at a wavelength of 450 nm. Antibodies were diluted in C3 wash buffer supplemented with 0.5% BSA.

human MASP1, sequence (P48740 other isoform, or with tags, fused parts or gaps): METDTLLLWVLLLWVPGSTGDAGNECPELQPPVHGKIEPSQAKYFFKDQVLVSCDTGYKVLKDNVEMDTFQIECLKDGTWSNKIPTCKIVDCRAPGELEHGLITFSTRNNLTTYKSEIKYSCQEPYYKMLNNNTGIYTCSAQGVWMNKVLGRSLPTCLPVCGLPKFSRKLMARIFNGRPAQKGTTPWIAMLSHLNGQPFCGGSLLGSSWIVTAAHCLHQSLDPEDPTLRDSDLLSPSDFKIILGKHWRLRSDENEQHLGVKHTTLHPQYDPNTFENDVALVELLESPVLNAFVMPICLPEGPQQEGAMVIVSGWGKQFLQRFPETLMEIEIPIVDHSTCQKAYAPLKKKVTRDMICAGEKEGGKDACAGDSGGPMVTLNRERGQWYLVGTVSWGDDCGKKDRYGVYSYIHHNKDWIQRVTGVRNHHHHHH
human MASP2, sequence (O00187 other isoform, or with tags, fused parts or gaps): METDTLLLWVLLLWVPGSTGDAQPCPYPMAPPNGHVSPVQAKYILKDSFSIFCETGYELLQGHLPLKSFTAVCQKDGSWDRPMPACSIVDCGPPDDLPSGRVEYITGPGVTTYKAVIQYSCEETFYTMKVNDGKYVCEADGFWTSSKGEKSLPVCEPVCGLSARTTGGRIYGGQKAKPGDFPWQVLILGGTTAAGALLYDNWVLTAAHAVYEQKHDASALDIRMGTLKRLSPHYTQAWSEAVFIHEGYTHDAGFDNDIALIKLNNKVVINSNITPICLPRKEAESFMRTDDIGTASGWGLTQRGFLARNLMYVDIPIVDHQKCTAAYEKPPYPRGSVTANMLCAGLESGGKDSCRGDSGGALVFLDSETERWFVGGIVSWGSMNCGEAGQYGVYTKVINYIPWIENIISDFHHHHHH

Question: Which results are given for `CC[C@H](C)[C@@H]1NC(=O)[C@H](C)NC(=O)CCCCCNC(=O)C[C@@H](C(N)=O)NC(=O)[C@@H]2CCCN2C(=O)[C@H]([C@@H](C)CC)NC(=O)[C@H]2NC(=O)[C@H]([C@@H](C)CC)NC(=O)[C@@H]3C[C@@H]4CCCC[C@@H]4N3C(=O)[C@H]3CCCN3C(=O)[C@H](CC(C)C)NC(=O)[C@H](CO)NC(=O)[C@H](CCCNC(=N)N)NC(=O)[C@H](CO)NC(=O)[C@H](CSSC2(C)C)NC1=O` [Example 43]?
Answer: IC50 (human MASP2): 120 nM; IC50 (human MASP1): 6.7 nM; IC50 [1]: 28.2 nM

Question: Which IC50 (human MASP2) does the source give for `CC[C@H](C)[C@@H]1NC(=O)[C@H](C)NC(=O)[C@@H](N)CCCNC(=O)C[C@@H](C(N)=O)NC(=O)[C@@H]2CCCN2C(=O)[C@H]([C@@H](C)CC)NC(=O)[C@H]2NC(=O)[C@H]([C@@H](C)CC)NC(=O)[C@@H]3CCCN3C(=O)[C@@H]3CCCN3C(=O)[C@H](CC(C)(C)C)NC(=O)[C@H](CO)NC(=O)[C@H](CCCNC(=N)N)NC(=O)[C@H](CO)NC(=O)[C@H](CSSC2(C)C)NC1=O` [Example 61] (H-[Orn]AICSRS[tBuAla]PPI[Pen]IPD-NH2; lactam 1-15; disulfide 4-12) here?
Answer: Its IC50 is 310 nM.

Question: And the IC50 (human MASP1)?
Answer: The IC50 was 3.1 nM.

Question: And the IC50 [1]?
Answer: The IC50 was 23.4 nM.

Question: Which results are given for `CC[C@H](C)[C@@H]1NC(=O)CCCCCNC(=O)[C@@H]2CCCN2C(=O)[C@H]([C@@H](C)CC)NC(=O)[C@H]2NC(=O)[C@H]([C@@H](C)CC)NC(=O)[C@@H]3CCCN3C(=O)[C@@H]3CCCN3C(=O)[C@H](CC(C)(C)C)NC(=O)[C@H](CO)NC(=O)[C@H](CCCNC(=N)N)NC(=O)[C@H](CO)NC(=O)[C@H](CSSC2(C)C)NC1=O` [Example 51] (cyclo([Ahx]ICSRS[tBuAla]PPI[Pen]IP); disulfide 3-11)?
Answer: IC50 (human MASP2): 17 nM; IC50 (human MASP1): 6.3 nM; IC50 [1]: 28.2 nM

Question: For `CC[C@H](C)[C@@H]1NC(=O)[C@H](C)NC(=O)CNC(=O)C[C@@H](C(N)=O)NC(=O)[C@@H]2CCCN2C(=O)[C@H]([C@@H](C)CC)NC(=O)[C@@H]2CSSC[C@H](NC1=O)C(=O)N[C@@H](CO)C(=O)N[C@@H](CCCNC(=N)N)C(=O)N[C@@H](CO)C(=O)N[C@@H](CC(C)C)C(=O)N1CCC[C@H]1C(=O)N1CCC[C@H]1C(=O)N[C@@H]([C@@H](C)CC)C(=O)N2` [Example 37] (GAICSRSLPPICIPD-NH2; disulfide 4-12; lactam N-15), which IC50 (human MASP2) is on record?
Answer: The IC50 was 140 nM.

Question: And the IC50 (human MASP1)?
Answer: The IC50 was 16 nM.

Question: And the IC50 [1]?
Answer: Its IC50 is 59.4 nM.

Question: What does the source list for `CC[C@H](C)[C@@H]1NC(=O)[C@H](C)NC(=O)CCCCCNC(=O)[C@H](CC(=O)O)NC(=O)[C@@H]2CCCN2C(=O)[C@H]([C@@H](C)CC)NC(=O)[C@@H]2CSSC[C@H](NC1=O)C(=O)N[C@@H](CO)C(=O)N[C@@H](CCCNC(=N)N)C(=O)N[C@@H](CO)C(=O)N[C@@H](CC(C)(C)C)C(=O)N1CCC[C@H]1C(=O)N1CCC[C@H]1C(=O)N[C@@H]([C@@H](C)CC)C(=O)N2` [Example 46] (cyclo(AICSRS[tBuAla]PPICIPD[Ahx]); disulfide 3-11)?
Answer: IC50 (human MASP2): 89 nM; IC50 (human MASP1): 56 nM; IC50 [1]: 228 nM

Question: How did the IC50 (human MASP2) turn out when `CC[C@H](C)[C@@H]1NC(=O)CNC(=O)[C@H]2CC[C@@H](CC2)CNC(=O)CNC(=O)C[C@@H](C(N)=O)NC(=O)[C@@H]2CCCN2C(=O)[C@H]([C@@H](C)CC)NC(=O)[C@@H]2CSSC[C@H](NC1=O)C(=O)N[C@@H](CO)C(=O)N[C@@H](CCCNC(=N)N)C(=O)N[C@@H](CO)C(=O)N[C@@H](CC(C)(C)C)C(=O)N1CCC[C@H]1C(=O)N1CCC[C@H]1C(=O)N[C@@H]([C@@H](C)CC)C(=O)N2C` [Example 69, (1R,4S,10S,13S,21S,24S,30S,33R,36S,39S,42S,45S,51S,57S,60S)-4,30,60-tri[(2S)-butan-2-yl]-39-(3-carbamimidamidopropyl)-45-(2,2-dimethylpropyl)-36,42-bis(hydroxymethyl)-62-methyl-2,5,11,15,18,25,28,31,34,37,40,43,46,52,58,61-hexadecaoxo-64,65-dithia-3,6,12,16,19,26,29,32,35,38,41,44,47,53,59,62-hexadecaazahexacyclo[31.29.4.2^21,240.0^6,100.0^47,510.0^53,57]octahexacontane-13-carboxamide] (G[Trx]GICSRS[tBuAla]PPI[NMeC]IPD-NH2; disulfide 5-13; lactam N-16) was run?
Answer: The IC50 was 190 nM.

Question: And the IC50 (human MASP1)?
Answer: The IC50 was 20 nM.

Question: What about the IC50 [1] of the same compound?
Answer: The IC50 was 364 nM.

Question: For `CC[C@H](C)[C@@H]1NC(=O)[C@H]2NC(=O)[C@H]([C@@H](C)CC)NC(=O)[C@@H]3CCCN3C(=O)[C@@H]3CCCN3C(=O)[C@H](CC(C)(C)C)NC(=O)[C@H](CO)NC(=O)[C@H](CCCNC(=N)N)NC(=O)[C@H](CO)NC(=O)[C@H](CSSC2(C)C)NC(=O)[C@H]([C@@H](C)CC)NC(=O)[C@@H](N)CCCNC1=O` [Example 66, N-{3-[(5aS,11S,14S,17S,20S,23R,26S,29R,35S,38S,41S,43aS)-29-amino-26,35,41-tri[(2S)-butan-2-yl]-11-(2,2-dimethylpropyl)-14,20-bis(hydroxymethyl)-44,44-dimethyl-5,10,13,16,19,22,25,28,34,37,40,43-dodecaoxodotetracontahydro-5H-23,38-(methanodithiomethano)dipyrrolo[2,1-1:2′,1′-o][1,4,7,10,13,16,19,22,25,28,31,34]dodecaazacyclononatriacontin-17-yl]propyl}guanidine] (H-[Orn]ICSRS[tBuAla]PPI[Pen]I; lactam 1-C; disulfide 3-11), which IC50 (human MASP2) is on record?
Answer: Its IC50 is 22 nM.

Question: And the IC50 (human MASP1)?
Answer: The IC50 was 8.1 nM.

Question: And the IC50 [1]?
Answer: The IC50 was 25.8 nM.

Question: Which results are given for `CC[C@H](C)[C@@H]1NC(=O)CNC(=O)[C@H](CO)NC(=O)CNC(=O)[C@H](CO)NC(=O)[C@H](CC(=O)O)NC(=O)[C@@H]2CCCN2C(=O)[C@H]([C@@H](C)CC)NC(=O)[C@@H]2CSSC[C@H](NC1=O)C(=O)N[C@@H](CO)C(=O)N[C@@H](CCCNC(=N)N)C(=O)N[C@@H](CO)C(=O)N[C@@H](CC(C)C)C(=O)N1CCC[C@H]1C(=O)N1CCC[C@H]1C(=O)N[C@@H]([C@@H](C)CC)C(=O)N2` [Example 21] (cyclo(CIPDSGSGICSRSLPPI); disulfide 1-10)?
Answer: IC50 (human MASP2): 120 nM; IC50 (human MASP1): 170 nM

Question: With `CC[C@H](C)[C@@H]1NC(=O)[C@H](C)NC(=O)CCC(=O)NCCCOCCOCCOCCCNC(=O)[C@H](CC(=O)O)NC(=O)[C@@H]2CCCN2C(=O)[C@H]([C@@H](C)CC)NC(=O)[C@H]2NC(=O)[C@H]([C@@H](C)CC)NC(=O)[C@@H]3CCCN3C(=O)[C@@H]3CCCN3C(=O)[C@H](CC(C)(C)C)NC(=O)[C@H](CO)NC(=O)[C@H](CCCNC(=N)N)NC(=O)[C@H](CO)NC(=O)[C@H](CSSC2(C)C)NC1=O` [Example 63] (AICSRS[tBuAla]PPI[Pen]IPD; disulfide 3-11; linker N-C via X6) as the compound, how does the IC50 (human MASP2) read?
Answer: The IC50 was 170 nM.

Question: What about the IC50 (human MASP1) of the same compound?
Answer: Its IC50 is 28 nM.

Question: How did the IC50 (human MASP2) turn out when `CC[C@H](C)[C@@H]1NC(=O)[C@H](C)NC(=O)CCCCCNC(=O)CC[C@@H](C(N)=O)NC(=O)[C@@H]2CCCN2C(=O)[C@H]([C@@H](C)CC)NC(=O)[C@H]2NC(=O)[C@H]([C@@H](C)CC)NC(=O)[C@@H]3C[C@@H]4CCCC[C@@H]4N3C(=O)[C@@H]3CCCN3C(=O)[C@H](CC(C)C)NC(=O)[C@H](CO)NC(=O)[C@H](CCCNC(=N)N)NC(=O)[C@H](CO)NC(=O)[C@H](CSSC2(C)C)NC1=O` [Example 74] ([Ahx]AICSRSLP[Oic]I[Pen]IPE-NH2; disulfide 4-12; lactam N-15) was run?
Answer: The IC50 was 160 nM.

Question: What about the IC50 (human MASP1) of the same compound?
Answer: Its IC50 is 14 nM.
